The subject of one test is dopamine reuptake. As to conditions: cited from earlier work.
The conditions of test [1]: cited from earlier work.
The conditions of test [2]: 2.5 mg of Focalin has the same therapeutic benefit as 5.0 mg of Ritalin; cited from earlier work.
Test [3] concerns boys 9-12 years of age with ADHD combined subtype. Kind of test: Infrared motion analysis of head marker movements during a 15-minute cognitive control task (Quotient Test), PRE and 120 minutes POST probe dose MPH. Type of test: in vivo, human. Here is the method: Data were analyzed from a study approved and monitored by the McLean Hospital Institutional Review Board […]. The ADHD sample consisted of 62 boys between 9-12 years of age who met Diagnostic and Statistical Manual of Mental Disorders, 4th edition (DSM-IV) (Diagnostic and statistical manual of mental disorders: DSM-IV.—4th ed., text revision. Washington, D.C: American Psychiatric Association; 2000) criteria for ADHD combined subtype. Subjects were recruited from the general population via newspaper advertisement for hyperactive boys who were currently or previously treated with MPH, as the protocol called from them to receive a moderately large probe dose of immediate release MPH. This was easier to justify in subjects known to tolerate MPH without untoward effects. Parental written consent and child verbal assent were obtained. […] Seventy-three boys went through the screening procedures, which included structured interviews for DSM-IV Axis I psychiatric diagnoses using K-SADS-E (Orvaschel H, Puig-Antich J. Schedule for Affective Disorder and Schizophrenia for School-Age Children, Epidemiologic Version, Fifth Revision. Fort Lauderdale, Fla.: Nova Southeastern University; 1994); and parent ratings on the Conners' Hyperactivity Index (Conners et al., J Abnorm Child Psychol. 26:257 (1998)) and Achenbach Child Behavior Checklist (CBCL) (Achenbach T. Integrative Guide to the 1991 CBCL/4-18, YSR, and TRF Profiles. Burlington, Vt.: University of Vermont, Department of Psychology; 1991). Children with ADHD could not have any current major mood disorder, psychosis, tic disorder, a major anxiety disorder, or mental retardation. Children with oppositional defiant disorder (ODD), or reported learning disorders, could participate. From this pool of subjects, 11 were excluded from further participation. […] One subject was disqualified for drug use, another was disqualified for current antidepressant treatment of night terrors, and one withdrew before the probe dose. […] In this sample, there were 19 boys with comorbid ODD, 2 with current dysthymia, 4 with learning disorders, and 3 with past major depression or past anxiety disorders. […] Sixty of these subjects were previously included in a study examining fluctuations in attentional state (Teicher et al., J Child Adolesc Psychopharmacol. 14:219 (2004)), and 48 were included in a study on pharmacokinetic-pharmacodynamic response to methylphenidate (Teicher et al., J Child Adolesc Psychopharmacol. 16:416 (2006)).
For comparison, we analyzed data from a representative non-clinical contrast group. This group consisted of 62 male students, randomly selected from a sample of 1168 subjects (6-14 years of age) tested at local public schools using teacher ratings and a computerized attention task with infrared motion analysis (Teicher et al., J Am Acad Child Adolesc Psychiatry 35:334 (1996); Quotient Test, BioBehavioral Diagnostic Company, Cambridge, Mass.). This large-scale database development study was approved by the McLean Hospital IRB and the school administrators. Parents provided written consent and children gave verbal assent to participate. Subjects selected from this sample were male, and matched 1:1 with the ADHD subjects by age to the nearest month (11.0±1.0 years). The selection criteria applied for this analysis was that they needed to have Conners' Teacher Ratings (Conners C K. American Journal of Psychiatry 126:884 (1969)) that were within ±1 SD of the mean of peers their own age and gender (i.e., T score<60), to help exclude subjects with potential ADHD.
Children with ADHD were tested prior to (PRE) and 120-minutes following (POST) a probe dose of 0.4 mg/kg MPH. Contrast subjects only received a single Quotient Test, which was specifically designed to provide objective measures of hyperactivity, inattention and impulsivity (Teicher et al., J Am Acad Child Adolesc Psychiatry 35:334 (1996)). […]

Consider 4 compounds from patent US20120310117A1, “METHOD FOR […] AND RELATED […]” (The McLean Hospital Corporation, priority 2009, published 2012).

As to `CC(NC(C)(C)C)C(=O)c1cccc(Cl)c1` (stereo not drawn) [Bupropion], the “potency as inhibitor of dopamine reuptake relative to norepinephrine reuptake” value with dopamine reuptake is listed as “about twice as potent”.
For the compound `COC(=O)[C@H](c1ccccc1)[C@H]1CCCCN1` [Focalin], the “onset of action, in words” value in test [1] (after administration) is given as “immediately”. The “potency relative to methylphenidate” value in test [2] is given as “twice as potent”.
For `CNCC[C@@H](Oc1ccccc1C)c1ccccc1` [Atomoxetine], the “coverage of symptoms associated with ADHD” value in test [1] (clinical trials in adults and children) is 24 h.
In the case of `COC(=O)C(c1ccccc1)C1CCCCN1` (stereo not drawn) [MPH, methylphenidate], in test [3] (ADHD POST vs contrast), the “MLE in ADHD after MPH relative to contrast subjects” value amounted to 4.8 fold; the “ROC Area for MLE, ADHD POST vs contrast subjects” value is reported as 0.995; the “ROC Area for β, ADHD POST vs contrast subjects” value amounted to 0.850; the “effect size d' for MLE, ADHD after MPH vs contrast subjects” value came to 3.1. The “percentage of ADHD subjects with evidence for a deterministic chaotic component to head movements after MPH” value in test [3] (MLE vs surrogate data, fell from 84% PRE, 41/62 POST) was 66%. In addition, the “baseline and spike amplitudes and spike numbers relative to contrast group” value in test [3] (Max-Pass, ADHD POST vs contrast controls) is given as “suppressed to at or below contrast group levels”. In test [3] (Max-Pass, POST (120 min after 0.4 mg/kg MPH) vs PRE), the “reduction of spike amplitude” value is recorded as 52%. Further, the “reduction of baseline amplitude” value in test [3] (Max-Pass, POST (120 min after 0.4 mg/kg MPH) vs PRE, 62 ADHD boys) worked out at 63%. The “reduction of number of spikes” value in test [3] (Max-Pass, POST vs PRE) came out at 35%. Further, the “effect size of MPH on ApEn, β and MLE” value in test [3] (POST vs PRE) is recorded as 1.0-1.2. Further, the “within subject reduction in composite inhibitory measures” value in test [3] (baseline and spike amplitude, POST vs PRE) is 58.3%±39.9%. In test [3] (correlation dimension method with surrogate data, 56/62 PRE), the “ADHD subjects POST with evidence for a deterministic component to head positions” value is 62/62. For the same compound, in test [3] (first 5 minutes of the test), the “inhibitory measures POST MPH vs controls” value is on record as “did not differ from controls” and the “non-linear measures POST MPH vs controls” value is listed as “remained distinctly different than controls”. Further, in test [3] (post-medication ADHD subjects, N 62, PRE AVG 100897.28, CTRL AVG 42396.0034), the “Spike area (SpArea) PST AVG” value is on record as 36631.5066. Besides, the “baseline and spike amplitudes relative to contrast group” value in test [3] (spike detection by cluster analysis, ADHD POST vs contrast controls) was “at or below contrast group levels”. The “reduction in composite measures of positional stability” value in test [3] (β, MLE, POST vs PRE) is on record as 16.6%±19.2%.
